Values quoted from earlier work as cited in patent US7037910B2, “Azabicyclic heterocycles as cannabinoid receptor modulators” (Bristol-Myers Squibb, priority 2003, dated 2006).
Like-named read-outs stand apart in the source and are kept apart here.

Assays:
[1] = chronic administration for two weeks
[2] = human subjects, 16 week trial period

SMILES | body weight [1] | body weight [2]
Cc1c(C(=O)NN2CCCCC2)nn(-c2ccc(Cl)cc2Cl)c1-c1ccc(I)cc1 [AM-251] | substantial body weight reduction | –
Cc1c(C(=O)NN2CCCCC2)nn(-c2ccc(Cl)cc2Cl)c1-c1ccc(Cl)cc1 [SR-141716] | – | dose-dependently reduced body weight
